Results published in US9518038B2, “Condensation product of theanine derivative and carboxylic acid coumarin derivative, its intermediate, preparation method and use thereof” (SHANDONG YINGDONG YINGHAO BIOTECHNOLOGY, INC., priority 2012, dated 2016).
Where two headings read alike, the source gives them in different places.

Assays:
Assay type in all cases: cell-based
[1] = test system: human pancreatic cancer cells BxPC3; assay: MTT growth inhibition, BxPc3 cells; conditions: Homo sapiens, BXPC-3, 72 h after treatment, read-out: Drug concentration (IC50) at which 50% cancer cells survived
From the text: (§1) Cell lines and cell culture: human lung cancer cells A549 and H460, human breast cancer cells MCF-7 and MDA-MB-231, human gastric cancer cells BGC-823, human prostate cancer cells PC-3, human chronic leukemia cells K562, human lymphoma cells U937, human liver cancer cells SMMC7721 and HepG2, human colon cancer cells HT29, human pancreatic cancer cells PANC-1 and BxPC3, human cervical cancer Hela cell lines, human brain tumor cells Daoy, human neuroma cells D54 and human oral epidermoid cancer cells KBV200 line with strong drug resistance, mouse melanoma cells B16, and highly metastatic Lewis lung cancer cell lines were purchased from American Type Culture Collection of the U.S. These cells were cultured with DMEM and RPMI-1640 culture solutions separately.
(§2) The procedure was as follows:
(§3) (1) 0.25% trypsin was used to digest cancer cells in a logarithmic growth phase to prepare a single-cell suspension, the concentration of cells was adjusted to 5×10^4/mL, and the adjusted suspension was inoculated into a 96-well culture plate with 100 μl per well;
(§4) (2) The culture plate was transferred into a 37° C. incubator with a saturated humidity and 5% of CO2 and cultured for 24 h; the compounds and the intermediates thereof obtained in embodiments 1-7 and the compound as represented by formula (IIIa) or the positive control anti-cancer drug with the concentration of 1-1000 μM/L were added to enable the final concentration to be 0.1-1500 μM/L. Control wells (only added with 200 μl of cell suspension) and drug-free blank control wells (containing the solvent of 0.01% DMSO) were set, each group included 8 wells, and the plate was placed into the 37° C. incubator with saturated humidity and 5% of CO2 for culturing;
(§5) (3) The 96-well plate was taken out at 48 h and 72 h after dosing, the original culture medium was carefully removed by suction, 100 μl of serum-free DMEM culture medium and 10 μl of MTT (5 mg/mL) solution were added in each well. The plate was continuously cultured for another 4 h and then the culture was terminated;
(§6) (4) The supernatant in the wells was carefully removed by suction, each well was added with 150 μl of DMSO and shaked at room temperature for 10-15 min to fully dissolve crystals.
(§7) (5) Colorimetric analysis: the wavelength was selected as 570 nm, the light absorbance (A value) of each well was determined on the microplate reader and the results were recorded; the experiment was repeated for three times;
(§8) (6) the experimental results were calculated according to the following formula: relative survival rate=(A value of each experimental group/A value of cell control group)×100%
(§9) Calculation of median-effect concentration (IC50, namely the drug concentration at which the inhibition rate is 50%, also known as half inhibitory concentration):
(§10) IC50 of the detected component was calculated by using a regression equation.

[2] = test system: human gastric cancer cells BGC-823; assay: MTT growth inhibition, BGC-823 cells; conditions: 72 h after treatment, read-out: Drug concentration (IC50) at which 50% cancer cells survived
From the text: as §1, §2, §3, §4, §5, §6, §7, §8, §9, §10

[3] = test system: nucleoprotein factor NF-κB (p65)-DNA binding activity; assay: NF-κB (p65)-DNA binding activity (EMSA)
From the text: The in-vitro experiment of the inhibitory effect against the NF-κB(p65)-DNA binding activity was applied with the chemiluminescent EMSA kit of Pierce Biotechnology Company of the U.S., the experimental method was strictly operated according to the description of the kit and the specific procedure were as follows:
(1) Preparation of EMSA gel
The cells treated by the drugs were extracted by the nucleoprotein extract solution (provided by Beyotime Biotechnology of Institute) to obtain the nucleoprotein extracts, and 10 μg/pipe of the nucleoprotein extracts were respectively used for sample reaction and electrophoresis detection and analysis shown in the following table.
(2) Pre-electrophoresis: the gel was fixed in an electrophoresis tank, which was filled with a 0.5×TBE electrophoresis buffer solution, and electrophoresed under 10V/cm for 90 min. The probe binding reaction was as follows:
The components were added in sequence into the EP pipe according to the above table, uniformly mixed and stood at room temperature for 15 min to eliminate possible non-specific binding of probe and protein. 1 μl of biotin-labeled probe NF-κB was respectively added and stood at room temperature for 20 min.
(4) Film transfer: the process of transferring the nucleoprotein factors and the binding probe on the EMSA gel to the nylon film was electrically transferred under 380 mA in ice bath for 40 min.
(5) Ultraviolet cross-linking: the nylon film was placed under a 254 nm ultraviolet lamp and irradiated for 15 min.
(6) Detection of the biotin-labeled probe by chemiluminescence: the cross-linked nylon film was blocked with the blocking solution, a treated film was subjected to X-ray exposure, developing, and fixation according to the requirements of the kit, and the results were analyzed.

[4] = test system: human colon cancer cells HT29; assay: MTT growth inhibition, HT29 cells; conditions: HT-29, 72 h after treatment, read-out: Drug concentration (IC50) at which 50% cancer cells survived
From the text: as §1, §2, §3, §4, §5, §6, §7, §8, §9, §10

human neuroma cells D54 = assay: MTT growth inhibition, D54 cells; conditions: Homo sapiens, 72 h after treatment, read-out: Drug concentration (IC50) at which 50% cancer cells survived
From the text: as §1, §2, §3, §4, §5, §6, §7, §8, §9, §10

NF-κB = assay: Western Blotting, NF-κB level; conditions: human liver cancer cells, Lewis lung cancer cells and other cancer cell lines and tumor tissues, read-out: Effective concentration (IC50) for inhibition of NF-κB
From the text: (§11) Antibodies: primary antibodies of VEGFR, EGFR, c-Met, K-Ras, H-Ras, Akt, NF-κB, Cyclin D1, ER-alpha, Dvl-1, Dvl-2, Dvl-3, MMP-9, MMP2, β-catenin, Bcl-2, Bax, p53, p21, E-cadherin and Caspase3 protein, purchased from American Cell Signaling Technology Company and Santa Cruz Technology Company; and H3 acetylation, H4 acetylation and HDAC (HDAC3, HDAC4 and the like) Antibody Sample Kits, purchased from Cell Signaling Technology Company of the U.S.
(§12) (3) polyacrylamide gel electrophoresis (SDS-PAGE): an equal amount of protein lysate sample was used to separate protein, film transfer, and blocking, treated with appropriate primary antibodies and secondary antibodies in sequence, and the film was washed, then the color was developed with ECL kit, and a blot protein band was detected by exposure of an X-ray film; and a Gel-Pro Analyzer was used for quantitative analysis of gray degree, optical density value of the control group and the drug treatment group in various concentration were respectively compared with that of internal reference, the obtained ratios were respectively compared with the control group, and the protein expression level was semi-quantified.

p21 = assay: Western Blotting, increase of p21 level; conditions: liver cancer cells, Lewis lung cancer cells and other cancer cell lines and tumor tissue protein lysates, 48 h treatment, read-out: Effective concentration to increase p21 by 50%
From the text: as §11, §12

mouse melanoma cells B16 = assay: MTT growth inhibition, B16 cells; conditions: Mus musculus, 72 h after treatment, read-out: Drug concentration (IC50) at which 50% cancer cells survived
From the text: as §1, §2, §3, §4, §5, §6, §7, §8, §9, §10

[5] = test system: human cervical cancer Hela cell lines; assay: MTT growth inhibition, Hela cells; conditions: Homo sapiens, 72 h after treatment, read-out: Drug concentration (IC50) at which 50% cancer cells survived
From the text: as §1, §2, §3, §4, §5, §6, §7, §8, §9, §10

[6] = A549 cells, EMSA, nuclear protein extracts, 48 h, read-out: Effective concentration for 50% inhibition of binding of nucleoprotein factor NF-kB (p65) and DNA
[7] = MCF7 cells, EMSA, nuclear protein extracts, 48 h, read-out: Effective concentration for 50% inhibition of binding of nucleoprotein factor NF-kB (p65) and DNA
[8] = MDA-MB231 cells, EMSA, nuclear protein extracts, 48 h, read-out: Effective concentration for 50% inhibition of binding of nucleoprotein factor NF-kB (p65) and DNA
[9] = SMMC7721 cells, EMSA, nuclear protein extracts, 48 h, read-out: Effective concentration for 50% inhibition of binding of nucleoprotein factor NF-kB (p65) and DNA
[10] = human liver cancer cells, Lewis lung cancer cells and other cancer cell lines and tumor tissues, read-out: Effective concentration (IC50) for inhibition of NF-κB-DNA binding activity

| SMILES | IC50 [1] | IC50 [2] | IC50 [3, 6] | IC50 [3, 7] | IC50 [3, 8] | IC50 [3, 9] | IC50 [3, 10] | IC50 [4] | IC50 (human neuroma cells D54) | IC50 (NF-κB) | EC50 (p21) | IC50 (mouse melanoma cells B16) | IC50 [5] | IC50 ([3]; Lewis lung cancer cells, EMSA, nuclear protein extracts, 48 h, read-out: Effective concentration for 50% inhibition of binding of nucleoprotein factor NF-kB (p65) and DNA) | IC50 ([3]; Hela cells, EMSA, nuclear protein extracts, 48 h, read-out: Effective concentration for 50% inhibition of binding of nucleoprotein factor NF-kB (p65) and DNA) | IC50 ([3]; PANC-1 cells, EMSA, nuclear protein extracts, 48 h, read-out: Effective concentration for 50% inhibition of binding of nucleoprotein factor NF-kB (p65) and DNA) |
| --- | --- | --- | --- | --- | --- | --- | --- | --- | --- | --- | --- | --- | --- | --- | --- | --- |
| CCNC(=O)CCC(NC(=O)c1cc2cc([N+](=O)[O-])ccc2oc1=O)C(=O)OCC (stereo in doubt) [Compound If, (R)-2-(6-nitro-2-oxo-2H-benzopyran-3-carboxamido)-5-ethylamino-5-oxo-pentanoic acid ethyl ester] | 180 µM | 115 µM | < 100 µM | < 100 µM | < 100 µM | < 100 µM | < 100 µM | 153 µM | 105 µM | < 60 µM | < 65 µM | 280 µM | 71 µM |  |  |  |
| CCNC(=O)CC[C@@H](NC(=O)c1cc2cc(Br)ccc2oc1=O)C(=O)OCC [Compound Id, (R)-2-(6-Br-2-oxo-2H-benzopyran-3-carboxamido)-5-ethylamino-5-oxo-pentanoic acid ethyl ester] | 116 µM | 65 µM | < 110 µM | < 100 µM | < 100 µM | < 80 µM | < 120 µM | 45 µM | 92 µM | < 80 µM | < 100 µM | 120 µM | 75 µM |  |  |  |
| CCNC(=O)CC[C@@H](NC(=O)c1cc2cc(Cl)ccc2oc1=O)C(=O)OCC [Compound Ic, (R)-2-(6-CI-2-oxo-2H-benzopyran-3-carboxamido)-5-ethylamino-5-oxo-pentanoic acid ethyl ester] | 89 µM | 66 µM | < 125 µM | < 125 µM | < 125 µM | < 125 µM | < 125 µM | 105 µM | 98 µM | < 100 µM | < 100 µM | 125 µM | 350 µM |  |  |  |
| CCNC(=O)CCC(NC(=O)c1cc2ccccc2oc1=O)C(=O)OCC (centres unmarked) [Compound Ib, ethyl 5-ethylamino-5-oxo-2-(2-oxo-2H-benzopyran-3-carboxamido)pentanoate] | 105 µM | 127 µM | < 135 µM |  |  | < 120 µM | < 130 µM | 105 µM | 165 µM | < 120 µM | < 120 µM | 110 µM | 53 µM |  |  |  |
| CCNC(=O)CCC(NC(=O)c1cc2ccccc2oc1=O)C(=O)OC (centres unmarked) [Compound Ia, methyl 5-ethylamino-5-oxo-2-(2-oxo-2H-benzopyran-3-carboxamido)pentanoate] | 350 µM | 123 µM |  |  |  | < 125 µM | < 135 µM | 62 µM | 160 µM | < 125 µM | < 125 µM | 145 µM | 64 ± 20 µM | < 135 µM |  |  |
| CCNC(=O)CCC(NC(=O)c1cc2cc(F)ccc2oc1=O)C(=O)OCC (stereo in doubt) [Compound Ie, (R)-2-(6-F-2-oxo-2H-benzopyran-3-carboxamido)-5-ethylamino-5-oxo-pentanoic acid ethyl ester] | 260 µM | 143 µM | < 120 µM | < 100 µM | < 110 µM | < 121 µM | < 100 µM | 240 µM | 150 µM | < 60 µM | < 100 µM | 230 µM | 71 µM |  |  |  |
| CCNC(=O)CC[C@H](N)C(=O)OC [Compound IIa, theanine methyl ester] | 600 µM | 310 µM |  |  |  |  |  | 250 µM | 400 µM |  |  | 450 µM | 330 µM |  |  |  |
| CCNC(=O)CC[C@@H](NC(=O)c1cc2cc(Br)cc(Br)c2oc1=O)C(=O)OCC [Compound Ih, (R)-2-(6,8-dibromo-2-oxo-2H-benzopyran-3-carboxamido)-5-ethylamino-5-oxo-pentanoic ethyl ester] | 128 µM | 85 µM | < 70 µM | < 70 µM | < 70 µM | < 70 µM | < 125 µM | 108 µM | 87 µM | < 100 µM | < 100 µM | 146 µM | 58 µM |  | < 70 µM | < 70 µM |
| CCNC(=O)CC[C@H](N)C(=O)OCC [Compound IIb, theanine ethyl ester] | 300 µM | 600 µM |  |  |  |  |  | 600 µM | 300 µM |  |  | 500 µM | 500 µM |  |  |  |
